Reference: article PMC9768319 (iScience, 2022)
Read-outs that look alike come from different tables or passages of the source.

Legend:
[1] = tested on: HPNE and HPSC cells; type: cell-based, human; settings: for sensitivity of normal, non-transformed cells compared to cancer cells: HPNE and HPSC vs cancer cells
[2] = tested on: cancer cells (KPC1242, Panc-1, AsPC-1, HCT-116, MDA-MB-231, OVCAR-4, OVCAR-8); test: Cell confluence across the battery of cancer cell lines; type: cell-based; settings: escalating concentrations (0.1 µM-10 µM)
[3] = tested on: HPSC cells; test: TMRE retention by flow cytometry; type: cell-based, human; settings: serum-starved, 1 h treatment
[4] = tested on: KPC1242 cells; test: Luminescent ATP detection assay; type: cell-based, murine; settings: KPC1242, 24 h, 0.7 μM MMe or 3 μM pCF3-MMe
[5] = tested on: AsPC-1 cells; test: TMRE retention by flow cytometry; type: cell-based, human; settings: AsPC-1, serum-starved, 1 h treatment
[6] = Tolerability, daily injection for 5 consecutive days in non-tumor-bearing mice; type: in vivo; settings: daily for 5 consecutive days, 25 μg/mouse to 1 mg/mouse
[7] = tested on: AMP-Activated Protein Kinase (AMPK); test: AMPK Thr172 phosphorylation immunoblot; type: cell-based, murine; settings: KPC1242, 0.7 μM MMe or 3 μM pCF3-MMe
[8] = Tolerability, single intra-peritoneal injection in non-tumor-bearing mice; type: in vivo
[9] = type: in vivo, mice
[10] = tested on: KPC1242 cells; test: Ki-67 proliferation staining; type: cell-based, murine; settings: KPC1242, 24-h treatment, MMe 0.7 μM or pCF3-MMe 3 μM
[11] = after administration; cited from earlier work
[12] = tested on: Panc-1 cells; test: Cell confluence growth inhibition; type: cell-based, human
[13] = tested on: pancreatic, breast, and colon cancers; settings: cited from earlier work

For `N=C(N)NC(=N)NCCCCCCCCCC[P+](c1cccc(C(F)(F)F)c1)(c1cccc(C(F)(F)F)c1)c1cccc(C(F)(F)F)c1.[Br-]` [mCF3-MMe, (10-(3-carbamimidoylguanidino)decyl)tris(3-(trifluoromethyl)phenyl)phosphonium bromide], the “sensitivity of normal, non-transformed cells compared to cancer cells” value [1] was “more than a log-unit less sensitive”, the “reduction in toxicity to normal cells compared to MMe” value [1] was about 10 fold and the cell confluency [2] was “decreased in a concentration-dependent manner”.

With `N=C(N)NC(=N)NCCCCCCCCCC[P+](c1ccc(C(F)(F)F)cc1)(c1ccc(C(F)(F)F)cc1)c1ccc(C(F)(F)F)cc1.[Br-]` [pCF3-MMe, (10-(3-carbamimidoylguanidino)decyl)tris(4-(trifluoromethyl)phenyl)phosphonium bromide] the “sensitivity of normal, non-transformed cells compared to cancer cells” value [1] was “more than a log-unit less sensitive”, the “toxic effects toward non-transformed HPNE and HPSC-1 cells” value ([1]; compared to parent MMe and mCF3-MMe) was “least toxic effects” and the “reduction in toxicity to normal cells compared to MMe” value [1] was about 10 fold. For the same compound, the “TMRE accumulation within mitochondria” value [3] was “did not affect TMRE accumulation”, the “Levels of ATP” value [4] was “significantly reduced” and the “TMRE accumulation within mitochondria” value [5] was “significantly reduced TMRE accumulation”. The “tolerability of repeated injection” value [6] was “tolerated a 1 mg dose”, the “AMPK activation (Thr172 phosphorylation)” value [7] was “significant increase in AMPK activation” and the mice surviving ([8]; single intra-peritoneal injection of 1 mg) was 100%. The cell confluency [2] was “decreased in a concentration-dependent manner”, the “detection in the blood and liver” value ([9]; 2 h after intra-tumoral injection of 1 mg) was “undetectable” and the “detection in the blood and liver” value ([9]; 6 h after injection (not shown)) was “barely detectable above the signal-to-noise ratio”. For the same compound, the “levels within the tumors” value ([9]; 24 h after injection, 1 mg/mouse) was “measurable levels” and the “reduction in Ki-67 levels” value [10] was 20-30%.

In the case of `COC1=C(OC)C(=O)C(CCCCCCCCCC[P+](c2ccccc2)(c2ccccc2)c2ccccc2)=C(C)C1=O` [MitoQ], the half-life [11] is listed as about 30 min.

For `COc1ccc([P+](CCCCCCCCCCNC(=N)CC(=N)N)(c2ccc(OC)cc2)c2ccc(OC)cc2)cc1.[Br-]` [pMeO-MMe, [10-(2-carbamimidoylethanimidamido)decyl]tris(4-methoxyphenyl)phosphonium bromide], the “confluence of human pancreatic cancer cells” value ([12]; Panc-1 (Figure S5), escalating concentrations) was “concentration-dependent decrease in confluence” and the “efficacy in pancreas cancer cells” value ([12]; in contrast to the fluorinated compound) was “lower efficacy”.

For `N=C(N)NC(=N)NCCCCCCCCCC[P+](c1ccccc1)(c1ccccc1)c1ccccc1.[Br-]` [MMe, 10-[(carbamimidamidomethanimidoyl)amino]decyl-triphenylphosphonium bromide], the “fold more efficacious compared to metformin” value [13] is given as 100- to 1000 fold, the “sensitivity of normal, non-transformed cells compared to cancer cells” value [1] is given as “more than a log-unit less sensitive” and the “TMRE accumulation within mitochondria” value [3] is given as “did not affect TMRE accumulation”. The “Levels of ATP” value [4] was “significantly reduced”, the “TMRE accumulation within mitochondria” value [5] was “significantly reduced TMRE accumulation” and the “tolerability of repeated injection” value [6] was “succumbed to 4-fold lower doses”. The “AMPK activation (Thr172 phosphorylation)” value [7] was “significant increase in AMPK activation”, the “mortality after single injection” value ([8]; single intra-peritoneal injection of 250 μg or 1 mg) was “significant and rapid mortality” and the cell confluency [2] was “decreased in a concentration-dependent manner”. The “reduction in Ki-67 levels” value [10] was 20-30%.
